Assays:
[1] = test system: recombinant NL4-3 virus; experiment: HIV cell culture assay (luciferase reporter antiviral activity); assay type: cell-based; conditions: Human immunodeficiency virus 1, NL43, MT2
Protocol: HIV cell culture assay—MT=2 cells, 293T cells and the proviral DNA clone of NL4-3 virus were obtained from the NIH AIDS Research and Reference Reagent Program. MT=2 cells were propagated in RPMI 1640 media supplemented with 10% heat inactivated fetal bovine serum (FBS), […] penicillin G and up to 100 units/mL streptomycin. The 293T cells were propagated in DMEM media supplemented with 10% heat inactivated FBS, […] penicillin G and […] streptomycin. A recombinant NL4-3 proviral clone, in which a section of the nef gene was replaced with the Renilla luciferase gene, was used to make the reference virus used in these studies. The recombinant virus was prepared through transfection of the recombinant NL4-3 proviral clone into 293T cells using Transit-293 Transfection Reagent from Mirus Bio LLC (Madison, Wis.). Supernatent was harvested after 2-3 days and the amount of virus present was titered in MT=2 cells using luciferase enzyme activity as a marker by measuring luciferase enzyme activity. Luciferase was quantitated using the EnduRen Live Cell Substrate from Promega (Madison, Wis.). Antiviral activities of compounds toward the recombinant virus were quantified by measuring luciferase activity in MT=2 cells infected for 4-5 days with the recombinant virus in the presence of serial dilutions of the compound.
The 50% effective concentration (EC50) was calculated by using the exponential form of the median effect equation where (Fa)=1/[1+(ED50/drug conc.)m] (Johnson V A, Byington RT. Infectivity Assay. In Techniques in HIV Research. ed. Aldovini A, Walker B D. 71-76. New York: Stockton Press.1990). The 50% inhibitory concentration (EC50) was calculated by using the exponential form of the median effect equation where percent inhibition=1/[1+(EC50/drug concentration)m], where m is a parameter that reflects the slope of the concentration-response curve.

[2] = Compound cytotoxicity, XTT-based colorimetric assay; assay type: cell-based; conditions: human; uninfected MT2 cells, day 4, XTT
Protocol: Compound cytotoxicity and the corresponding CC50 values were determined using the same protocol as described in the antiviral assay except that uninfected cells were used. Cytotoxicity was assessed on day 4 in uninfected MT2 cells by using a XTT (2,3-bis[2-Methoxy-4-nitro-5-sulfophenyl]-2H-tetrazolium-5-carboxyanilide inner salt)-based colorimetric assay (Sigma-Aldrich, St Louis, Mo.).

Row | Compound | EC50 [1] [nM] | CC50 at 4 days [2] [nM]
1 | Cc1nccnc1-c1ccc2c(=O)n(-c3ccc(Cl)c4c(NS(C)(=O)=O)nn(C)c34)c([C@H](Cc3cc(F)cc(F)c3)NC(=O)Cn3nc(C(F)(F)F)cc3C(F)(F)F)nc2c1 (atropisomer, axis not shown; (P)) [Example 1, (S)-2-(3,5-bis(trifluoromethyl)-1H-pyrazol-1-yl)-N-(1-((3P)-3-(4-chloro-1-methyl-3-(methylsulfonamido)-1H-indazol-7-yl)-7-(3-methylpyrazin-2-yl)-4-oxo-3,4-dihydroquinazolin-2-yl)-2-(3,5-difluorophenyl)ethyl)acetamide] | 1.9 | > 500
2 | Cc1nccnc1-c1ccc2c(=O)n(-c3ccc(Cl)c4c(NS(C)(=O)=O)nn(C)c34)c([C@H](Cc3cc(F)cc(F)c3)NC(=O)Cn3nc(C4CC4)c4ccccc43)nc2c1 (atropisomer, axis not shown; (P)) [Example 2, (S)-N-(1-((3P)-3-(4-chloro-1-methyl-3-(methylsulfonamido)-1H-indazol-7-yl)-7-(3-methylpyrazin-2-yl)-4-oxo-3,4-dihydroquinazolin-2-yl)-2-(3,5-difluorophenyl)ethyl)-2-(3-cyclopropyl-1H-indazol-1-yl)acetamide] | 0.21 | > 500
3 | Cc1cc(C)nc(-c2ccc3c(=O)n(-c4ccc(Cl)c5c(NS(C)(=O)=O)nn(C)c45)c([C@H](Cc4cc(F)cc(F)c4)NC(=O)Cn4nc(C(F)(F)F)cc4C(F)(F)F)nc3c2)n1 (atropisomer, axis not shown; (P)) [Example 3, (S)-2-(3,5-bis(trifluoromethyl)-1H-pyrazol-1-yl)-N-(1-((3P)-3-(4-chloro-1-methyl-3-(methylsulfonamido)-1H-indazol-7-yl)-7-(4,6-dimethylpyrimidin-2-yl)-4-oxo-3,4-dihydroquinazolin-2-yl)-2-(3,5-difluorophenyl)ethyl)acetamide] | 3.6 | > 500
4 | Cc1cc(C)nc(-c2ccc3c(=O)n(-c4ccc(Cl)c5c(NS(C)(=O)=O)nn(C)c45)c([C@H](Cc4cc(F)cc(F)c4)NC(=O)Cn4nc(C5CC5)c5ccccc54)nc3c2)n1 (atropisomer, axis not shown; (P)) [Example 4, (S)-N-(1-((3P)-3-(4-chloro-1-methyl-3-(methylsulfonamido)-1H-indazol-7-yl)-7-(4,6-dimethylpyrimidin-2-yl)-4-oxo-3,4-dihydroquinazolin-2-yl)-2-(3,5-difluorophenyl)ethyl)-2-(3-cyclopropyl-1H-indazol-1-yl)acetamide] | 0.91 | > 500
5 | Cc1nccnc1-c1ccc2c(=O)n(-c3ccc(Cl)c4c(NS(C)(=O)=O)nn(C)c34)c([C@H](Cc3cc(F)cc(F)c3)NC(=O)Cn3ccc(C(C)(C)C)n3)nc2c1 (atropisomer, axis not shown; (P)) [Example 5, (S)-2-(3-(tert-butyl)-1H-pyrazol-1-yl)-N-(1-((3P)-3-(4-chloro-1-methyl-3-(methylsulfonamido)-1H-indazol-7-yl)-7-(3-methylpyrazin-2-yl)-4-oxo-3,4-dihydroquinazolin-2-yl)-2-(3,5-difluorophenyl)ethyl)acetamide] | 0.65 | > 500
6 | Cc1nccnc1-c1ccc2c(=O)n(-c3ccc(Cl)c4c(NS(C)(=O)=O)nn(C)c34)c([C@H](Cc3cc(F)cc(F)c3)NC(=O)Cn3nc(C(F)F)c4ccccc43)nc2c1 (atropisomer, axis not shown; (P)) [Example 7, (S)-N-(1-((3P)-3-(4-chloro-1-methyl-3-(methylsulfonamido)-1H-indazol-7-yl)-7-(3-methylpyrazin-2-yl)-4-oxo-3,4-dihydroquinazolin-2-yl)-2-(3,5-difluorophenyl)ethyl)-2-(3-(difluoromethyl)-1H-indazol-1-yl)acetamide] | 0.38 | > 500
7 | Cc1nccnc1-c1ccc2c(=O)n(-c3ccc(Cl)c4c(NS(C)(=O)=O)nn(C)c34)c([C@H](Cc3cc(F)cc(F)c3)NC(=O)Cn3nc(C4CC4)cc3C)nc2c1 (atropisomer, axis not shown; (P)) [Example 10, (S)-N-(1-((3P)-3-(4-chloro-1-methyl-3-(methylsulfonamido)-1H-indazol-7-yl)-7-(3-methylpyrazin-2-yl)-4-oxo-3,4-dihydroquinazolin-2-yl)-2-(3,5-difluorophenyl)ethyl)-2-(3-cyclopropyl-5-methyl-1H-pyrazol-1-yl)acetamide] | 0.21 | > 500
8 | Cc1nccnc1-c1ccc2c(=O)n(-c3ccc(Cl)c4c(NS(C)(=O)=O)nn(C)c34)c([C@H](Cc3cc(F)cc(F)c3)NC(=O)Cn3ccc(C4CCC4)n3)nc2c1 (atropisomer, axis not shown; (P)) [Example 11, (S)-N-(1-((3P)-3-(4-chloro-1-methyl-3-(methylsulfonamido)-1H-indazol-7-yl)-7-(3-methylpyrazin-2-yl)-4-oxo-3,4-dihydroquinazolin-2-yl)-2-(3,5-difluorophenyl)ethyl)-2-(3-cyclobutyl-1H-pyrazol-1-yl)acetamide] | 0.39 | > 500
9 | Cc1nccnc1-c1ccc2c(=O)n(-c3ccc(Cl)c4c(NS(C)(=O)=O)nn(C)c34)c([C@H](Cc3cc(F)cc(F)c3)NC(=O)Cn3nc(C(F)(F)F)cc3C)nc2c1 (atropisomer, axis not shown; (P)) [Example 12, (S)-N-(1-((3P)-3-(4-chloro-1-methyl-3-(methylsulfonamido)-1H-indazol-7-yl)-7-(3-methylpyrazin-2-yl)-4-oxo-3,4-dihydroquinazolin-2-yl)-2-(3,5-difluorophenyl)ethyl)-2-(5-methyl-3-(trifluoromethyl)-1H-pyrazol-1-yl)acetamide] | 0.49 | > 500
10 | O=C(Cn1nc(C2CC2)c2ccccc21)N[C@@H](Cc1cc(F)cc(F)c1)c1nc2nc(-c3ccccc3F)ccc2c(=O)n1-c1ccc(Cl)c2c(NS(=O)(=O)C3CC3)nn(CC(F)F)c12 (atropisomer, axis not shown; (P)) [Example 13, (S)-N-(1-((3P)-3-(4-chloro-3-(cyclopropanesulfonamido)-1-(2,2-difluoroethyl)-1H-indazol-7-yl)-7-(2-fluorophenyl)-4-oxo-3,4-dihydropyrido[2,3-d]pyrimidin-2-yl)-2-(3,5-difluorophenyl)ethyl)-2-(3-cyclopropyl-1H-indazol-1-yl)acetamide] | 0.47 | > 500
11 | Cn1nc(NS(C)(=O)=O)c2c(Cl)ccc(-n3c([C@H](Cc4cc(F)cc(F)c4)NC(=O)Cn4ccc(C(C)(C)C)n4)nc4nc(-c5ccccc5F)ccc4c3=O)c21 (atropisomer, axis not shown; (P)) [Example 14, (S)-2-(3-(tert-butyl)-1H-pyrazol-1-yl)-N-(1-((3P)-3-(4-chloro-1-methyl-3-(methylsulfonamido)-1H-indazol-7-yl)-7-(2-fluorophenyl)-4-oxo-3,4-dihydropyrido[2,3-d]pyrimidin-2-yl)-2-(3,5-difluorophenyl)ethyl)acetamide] | 0.53 | > 500
12 | Cn1nc(NS(C)(=O)=O)c2c(Cl)ccc(-n3c([C@H](Cc4cc(F)cc(F)c4)NC(=O)Cn4nc(C5CC5)c5ccccc54)nc4nc(-c5ccccc5F)ccc4c3=O)c21 (atropisomer, axis not shown; (P)) [Example 15, (S)-N-(1-((3P)-3-(4-chloro-1-methyl-3-(methylsulfonamido)-1H-indazol-7-yl)-7-(2-fluorophenyl)-4-oxo-3,4-dihydropyrido[2,3-d]pyrimidin-2-yl)-2-(3,5-difluorophenyl)ethyl)-2-(3-cyclopropyl-1H-indazol-1-yl)acetamide] | 0.17 | > 500
13 | CS(=O)(=O)Nc1nn(CC(F)F)c2c(-n3c([C@H](Cc4cc(F)cc(F)c4)NC(=O)Cn4nc(C(F)F)cc4C4CC4)nc4nc(-c5ccccc5F)ccc4c3=O)ccc(Cl)c12 (atropisomer, axis not shown; (P)) [Example 16] | 0.37 | > 500
14 | CS(=O)(=O)Nc1nn(CC(F)F)c2c(-n3c([C@H](Cc4cc(F)cc(F)c4)NC(=O)Cn4nc(C5CC5)cc4C(F)F)nc4nc(-c5ccccc5F)ccc4c3=O)ccc(Cl)c12 (atropisomer, axis not shown; (P)) [Example 17, (S)-N-(1-((3P)-3-(4-chloro-1-(2,2-difluoroethyl)-3-(methylsulfonamido)-1H-indazol-7-yl)-7-(2-fluorophenyl)-4-oxo-3,4-dihydropyrido[2,3-d]pyrimidin-2-yl)-2-(3,5-difluorophenyl)ethyl)-2-(3-cyclopropyl-5-(difluoromethyl)-1H-pyrazol-1-yl)acetamide] | 0.52 | > 500

From patent publication US20220370451A1, “INHIBITORS OF HUMAN IMMUNODEFICIENCY VIRUS REPLICATION” (VIIV HEALTHCARE UK ( No. 5) LIMITED, priority 2019, published 2022)
